Test results published in the NIST ThermoML archive (doi:10.1021/je100341q).
Numbers after ± are expanded uncertainties.

Tests used:
[1] = refractive index (Na D-line) (dimensionless); conditions: 293.15 K; 101.33 kPa; Liquid; Standard Abbe refractometry
[2] = for mass density: 293.15 K, 101.33 kPa, Liquid, Pycnometric method; for Normal melting temperature: Crystal, DTA
[3] = Molar enthalpy of transition or fusion; conditions: Crystal; DSC

Structure (SMILES) | refractive index [1] | mass density [2] | Molar enthalpy of transition or fusion [3] | Normal melting temperature [2]
C1CCCCC1 [cyclohexane] | 1.4266 ± 0.0007 | 779 ± 1 kg/m3 | – | –
C1COCCO1 [1,4-dioxane] | 1.4175 ± 0.0008 | 1034 ± 1 kg/m3 | – | –
c1ccncc1 [pyridine] | 1.5095 ± 0.0007 | 983 ± 1 kg/m3 | – | –
CCC(C)=O [butanone] | 1.3788 | 805 ± 1 kg/m3 | – | –
COc1ccc(P(=O)(c2ccc(OC)cc2)c2ccc(OC)cc2)cc1 [tris(4-methoxyphenyl)phosphine oxide] | – | – | 6.82 ± 0.194 kcal/mol | 144.69 ± 0.5 °C
CC(=O)O [acetic acid] | 1.3716 ± 0.0007 | 1049 ± 1 kg/m3 | – | –
COc1ccc(P(c2ccc(OC)cc2)c2ccc(OC)cc2)cc1 [tris(4-methoxyphenyl)phosphane] | – | – | 6.14 ± 0.186 kcal/mol | 130.67 ± 0.5 °C
CCOCCO [2-ethoxyethan-1-ol] | 1.4065 ± 0.0007 | 929 ± 1 kg/m3 | – | –
O=P(O)(CO)c1ccccc1 [(hydroxymethyl)(phenyl)phosphinic acid] | – | – | 6.49 ± 0.196 kcal/mol | 140.2 ± 0.5 °C
c1ccccc1 [benzene] | 1.5011 ± 0.0007 | 879 ± 1 kg/m3 | – | –
Cc1ccccc1 [toluene] | 1.4967 ± 0.0007 | 866 ± 1 kg/m3 | – | –
CC(C)=O [acetone] | 1.359 ± 0.0007 | 790 ± 1 kg/m3 | – | –
CCOC(C)=O [ethyl acetate] | 1.3719 ± 0.0007 | 899 ± 1 kg/m3 | – | –
ClC(Cl)Cl [trichloromethane] | 1.4476 ± 0.0007 | 1484 ± 2 kg/m3 | – | –
C1CCOC1 [tetrahydrofuran] | 1.405 ± 0.0008 | – | – | –
CC#N [acetonitrile] | 1.343 ± 0.0007 | 783 ± 1 kg/m3 | – | –
CO [methanol] | 1.3301 ± 0.0007 | 792 ± 1 kg/m3 | – | –
ClCCl [dichloromethane] | 1.4237 ± 0.0007 | 1321 ± 1 kg/m3 | – | –
CCOCC [diethyl ether] | 1.3497 ± 0.0007 | 714 ± 1 kg/m3 | – | –
O=P1(O)OCC2(CO1)COP(=O)(O)OC2 (stereo not given) | – | – | 5.37 ± 0.17 kcal/mol | 310.57 ± 0.5 °C
O=C(O)CCP(=O)(O)c1ccccc1 [3-(hydroxy(phenyl)phosphoryl)propanoic acid] | – | – | 8.03 ± 0.232 kcal/mol | 159.51 ± 0.5 °C
O=P1(Oc2ccccc2)OCC2(CO1)COP(=O)(Oc1ccccc1)OC2 (stereo not given) | – | – | 8.71 ± 0.239 kcal/mol | 196.43 ± 0.5 °C
CCO [ethanol] | 1.366 ± 0.0007 | 790 ± 1 kg/m3 | – | –
